# Measurements published in BigSolDB 2.1.
compound,measurement,setting,value
OC[C@H]1O[C@@H](c2ccc(Cl)c(Cc3ccc(O[C@H]4CCOC4)cc3)c2)[C@H](O)[C@@H](O)[C@@H]1O,solubility (mole fraction),"in DMF, 278.15 K",0.00117
same,solubility (mole fraction),"in DMF, 283.15 K",0.00124
same,solubility (mole fraction),"in DMF, 288.15 K",0.00129
same,solubility (mole fraction),"in DMF, 293.15 K",0.00134
same,solubility (mole fraction),"in DMF, 298.15 K",0.00142
same,solubility (mole fraction),"in DMF, 303.15 K",0.00149
same,solubility (mole fraction),"in DMF, 308.15 K",0.00158
same,solubility (mole fraction),"in DMF, 313.15 K",0.00165
same,solubility (mole fraction),"in DMF, 318.15 K",0.00171
same,solubility (mole fraction),"in acetonitrile, 278.15 K",6.19e-07
same,solubility (mole fraction),"in acetonitrile, 283.15 K",9.85e-07
same,solubility (mole fraction),"in acetonitrile, 288.15 K",1.46e-06
same,solubility (mole fraction),"in acetonitrile, 293.15 K",1.97e-06
same,solubility (mole fraction),"in acetonitrile, 298.15 K",2.62e-06
same,solubility (mole fraction),"in acetonitrile, 303.15 K",3.52e-06
same,solubility (mole fraction),"in acetonitrile, 308.15 K",4.87e-06
same,solubility (mole fraction),"in acetonitrile, 313.15 K",6.15e-06
same,solubility (mole fraction),"in acetonitrile, 318.15 K",8.16e-06
same,solubility (mole fraction),"in ethanol, 278.15 K",2.33e-06
same,solubility (mole fraction),"in ethanol, 283.15 K",3.77e-06
same,solubility (mole fraction),"in ethanol, 288.15 K",4.84e-06
same,solubility (mole fraction),"in ethanol, 293.15 K",6.6e-06
same,solubility (mole fraction),"in ethanol, 298.15 K",8.45e-06
same,solubility (mole fraction),"in ethanol, 303.15 K",1.1e-05
same,solubility (mole fraction),"in ethanol, 308.15 K",1.4e-05
same,solubility (mole fraction),"in ethanol, 313.15 K",1.85e-05
same,solubility (mole fraction),"in ethanol, 318.15 K",2.43e-05
same,solubility (mole fraction),"in ethyl acetate, 278.15 K",7.16e-07
same,solubility (mole fraction),"in ethyl acetate, 283.15 K",1.07e-06
same,solubility (mole fraction),"in ethyl acetate, 288.15 K",1.42e-06
same,solubility (mole fraction),"in ethyl acetate, 293.15 K",1.97e-06
same,solubility (mole fraction),"in ethyl acetate, 298.15 K",2.56e-06
same,solubility (mole fraction),"in ethyl acetate, 303.15 K",3.12e-06
same,solubility (mole fraction),"in ethyl acetate, 308.15 K",4.27e-06
same,solubility (mole fraction),"in ethyl acetate, 313.15 K",5.56e-06
same,solubility (mole fraction),"in ethyl acetate, 318.15 K",6.89e-06
same,solubility (mole fraction),"in ethylene glycol, 278.15 K",1.16e-05
same,solubility (mole fraction),"in ethylene glycol, 283.15 K",1.48e-05
same,solubility (mole fraction),"in ethylene glycol, 288.15 K",1.91e-05
same,solubility (mole fraction),"in ethylene glycol, 293.15 K",2.43e-05
same,solubility (mole fraction),"in ethylene glycol, 298.15 K",3.41e-05
same,solubility (mole fraction),"in ethylene glycol, 303.15 K",4.21e-05
same,solubility (mole fraction),"in ethylene glycol, 308.15 K",5.91e-05
same,solubility (mole fraction),"in ethylene glycol, 313.15 K",7.01e-05
same,solubility (mole fraction),"in ethylene glycol, 318.15 K",8.59e-05
same,solubility (mole fraction),"in formamide, 278.15 K",8.05e-05
same,solubility (mole fraction),"in formamide, 283.15 K",9.2e-05
same,solubility (mole fraction),"in formamide, 288.15 K",0.000108
same,solubility (mole fraction),"in formamide, 293.15 K",0.000122
same,solubility (mole fraction),"in formamide, 298.15 K",0.000143
same,solubility (mole fraction),"in formamide, 303.15 K",0.000174
same,solubility (mole fraction),"in formamide, 308.15 K",0.000202
same,solubility (mole fraction),"in formamide, 313.15 K",0.000248
same,solubility (mole fraction),"in formamide, 318.15 K",0.000303
same,solubility (mole fraction),"in methanol, 278.15 K",1.77e-05
same,solubility (mole fraction),"in methanol, 283.15 K",2.48e-05
same,solubility (mole fraction),"in methanol, 288.15 K",3e-05
same,solubility (mole fraction),"in methanol, 293.15 K",3.65e-05
same,solubility (mole fraction),"in methanol, 298.15 K",4.46e-05
same,solubility (mole fraction),"in methanol, 303.15 K",5.54e-05
same,solubility (mole fraction),"in methanol, 308.15 K",6.9e-05
same,solubility (mole fraction),"in methanol, 313.15 K",8.53e-05
same,solubility (mole fraction),"in methanol, 318.15 K",0.00011
same,solubility (mole fraction),"in n-butanol, 278.15 K",1.81e-06
same,solubility (mole fraction),"in n-butanol, 283.15 K",2.73e-06
same,solubility (mole fraction),"in n-butanol, 288.15 K",4.04e-06
same,solubility (mole fraction),"in n-butanol, 293.15 K",5.9e-06
same,solubility (mole fraction),"in n-butanol, 298.15 K",8.49e-06
same,solubility (mole fraction),"in n-butanol, 303.15 K",1.2e-05
same,solubility (mole fraction),"in n-butanol, 308.15 K",1.62e-05
same,solubility (mole fraction),"in n-butanol, 313.15 K",2.21e-05
same,solubility (mole fraction),"in n-butanol, 318.15 K",3.02e-05
same,solubility (mole fraction),"in n-propanol, 278.15 K",1.59e-06
same,solubility (mole fraction),"in n-propanol, 283.15 K",2.43e-06
same,solubility (mole fraction),"in n-propanol, 288.15 K",3.39e-06
same,solubility (mole fraction),"in n-propanol, 293.15 K",4.54e-06
same,solubility (mole fraction),"in n-propanol, 298.15 K",6.09e-06
same,solubility (mole fraction),"in n-propanol, 303.15 K",7.88e-06
same,solubility (mole fraction),"in n-propanol, 308.15 K",1.04e-05
same,solubility (mole fraction),"in n-propanol, 313.15 K",1.43e-05
same,solubility (mole fraction),"in n-propanol, 318.15 K",1.99e-05
